This is an account of results in PubChem BioAssay (NCI).

The subject of one test is RXF-631 renal. Nature of the test: inhibition of tumour cell growth, NCI panel, 48 h.
The next test deals with T-47D breast. The experiment in a line: inhibition of tumour cell growth, NCI panel, 48 h.

Molecules are shown by their SMILES.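 These data come from cells grown in 96-well plates and exposed to compound for 48 hours at five concentrations. Abbreviation: GI50, concentration required for 50% inhibition of growth. TGI marks complete inhibition of growth.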

Consider `O=C(c1ccccc1)c1ccc2n[se]nc2c1`, for which, in the test on RXF-631 renal, the TGI was greater than 100 µM. `CC(=O)C(C(c1ccccc1)N1CCOCC1)N1CCOCC1` (centres undefined): in the test with T-47D breast, the TGI is greater than 100 µM. Take `CCCC(C)c1ccc(OCCCCCCN2CCNCC2)cc1` (centres undefined): in the test with T-47D breast, the GI50 was 1.71 µM and the TGI worked out at 3.72 µM.
